# From patent US20090280194A1, “USE OF NITROXYL (HNO) FOR THE TREATMENT OF CANCERS OVEREXPRESSING MAT-8” (priority 2008, published 2009)
# Where two headings read alike, the source gives them in different places.
# Experiments:
# [1] = test system: LNCaP (androgen dependent) prostate tumor cells; assay: Growth inhibition of prostate tumor cells, modified MTT assay; assay type: cell-based
# Procedure: (§1) PC3 cells (filled circles) are hormone independent cells, whereas, LNCaP (opend circles) are hormone dependent cells. Y-axis indicates percentage of cell growth as measured by a modified MTT assay. X-axis in the concentration (mM) of Angeli's salt added every 24 hrs for a total of 72 hours.
# (§2) A characteristic feature of PC3 (androgen independent) and LNCaP (androgen dependent) prostate tumor cells is the overexpression of an intrinsic plasma membrane Na^+/K^+ pump regulatory protein, MAT-8. As described above, overexpression of MAT-8 is a property shared with breast, pancreatic and lung carcinomas. The growth inhibition of PC3 and LNCaP cells by nitroxyl (HNO) donated by Angeli's salt (AS) was investigated.
# (§3) PC3 (2500 cells/well) and LNCaP (4000 cells/well) cells were cultured in 200 μl of incubation media in each well of a 96-well assay plate 24 hours prior to the addition of AS. Following an overnight incubation at 37° C., appropriate AS concentrations were added to each well from a fresh stock solution of 0.5 M AS (Na2N2O3) in 10 mM NaOH (added to stabilize AS) diluted to 30 mM with cell culture medium. AS/HNO was added every 24 hours for a total of 72 hours. Cell viability was assayed using the MTT assay, a colorimetric method performed with minor modification according to the procedure of Mossman (1983) J. Immunol. Methods 65:55-63.
# [2] = test system: PC3 (androgen independent) prostate tumor cells; assay: as above; assay type: cell-based
# Procedure: as §1, §2, §3
# SERCA2a = target: T1, SERCA2a (Canis lupus familiaris, UniProt O46674); assay: EGTA-induced dephosphorylation (E2P hydrolysis) in native cardiac SR vesicles, quenched-flow mixing; assay type: biochemical, dog; settings: 0.25 mM AS, 24° C.
# T1 construct: native cardiac SR vesicles isolated from dog heart; from tissue; host or cells: dog heart, sarcoplasmic reticulum vesicles
# From the text: Y-axis indicates the level of E2P (nmol/mg), which undergoes hydrolysis in step 6 of FIG. 3. X-axis indicates time following addition of Angeli's salt (sec). The inset figure represents a normalized comparison of E2P hydrolysis in the presence (+AS) or absence (−AS) of Angeli's salt.
# Investigations of the mechanism of the cardiac muscle sarcoplasmic reticulum (SR) Ca^2+ pump (SERCA2a) have provided a paradigm for understanding how the interaction of nitroxyl with a regulatory protein (phospholamban) can activate the pump. SERCA2a is a P-type cation pump, i.e., it utilizes ATP as its energy source for uphill Ca^2+ transport and becomes phosphorylated by ATP during the catalytic cycle (FIG. 3). Regulation of its activity by the small intrinsic cardiac SR membrane protein, phospholamban (PLB), involves primarily steps 6 and 8 which are rate-limiting in the overall transport cycle and control Vmax (steps 6 and 8) and the affinity of the cytoplasmic Ca^2+ transport sites, Km (step 8). Mahaney et al. (2005) Biochemistry 44:7713-7724 and Antipenko et al. (1997) Biochemistry 36:12903-12910. […]
# SERCA2a was initially phosphorylated at the catalytic site using 10 μM [γ^32P]ATP and then subsequently dephosphorylated by chasing with 5 mM EGTA. […] In the absence of AS/HNO, E2P decay measured at 24° C. by quenched-flow mixing in dog cardiac SR is slow ([…]) and monophasic (FIG. 4).
# SERCA2a + PLB (WT) = target: T2, SERCA2a + PLB (WT) (Canis lupus familiaris, UniProt O46674+P61012); assay: E2P hydrolysis in Sf21 ER microsomes after EGTA chase; assay type: biochemical
# T2 construct: made in house; host or cells: Sf21 insect cells (baculovirus), ER microsomes
# From the text: (§4) Nitroxyl (HNO) donated by Angeli's salt (AS) enhances intracellular Ca^2+ cycling in isolated cardiac myocytes by activating Ca^2+ release from ryanodine (RyR2) receptors and Ca^2+ re-uptake by the SR Ca^2+ pump. Tocchetti et al. (2007) Circ. Res. 100:96-104. In cardiac SR vesicles, activation of Ca^2+ uptake by HNO involves a direct interaction with the pump and is accompanied by enhanced dephosphorylation of the cardiac Ca^2+-ATPase isozyme, SERCA2a. To determine whether HNO interacts with SERCA2a or its regulatory protein, phospholamban (PLB) and to characterize the protein site(s) modified by HNO, activation of SERCA2a dephosphorylation by nitroxyl using SERCA2a and PLB (WT and mutant) expressed in Sf21 cell ER microsomes (baculovirus system) was investigated. Brief exposure of SERCA2a+WT PLB to 0.25 mM AS produced a 10-fold stimulation of dephosphorylation (0.5 s^−1→5 s^−1) following an EGTA chase (Table 2). […] Exposure to dithiothreitol (2 mM DTT) reversed the activation of dephosphorylation by nitroxyl, similar to its effect on HNO-induced activation of Ca^2+ release from the RyR2 receptor. Tocchetti et al. (2007) Circ. Res. 100:96-104.
# SERCA2a + PLB (−C) = target: T3, SERCA2a + PLB (−C) (Homo sapiens, UniProt P16615+P26678, C36A/C41A/C46A); assay: as above; assay type: biochemical
# T3 construct: made in house; host or cells: Sf21 insect cells (baculovirus), ER microsomes
# From the text: as §4
# SERCA2a alone = assay: as above; assay type: biochemical; settings: 0.25 mM AS
# From the text: as §4
# SR Ca^2+ pump (SERCA2a) = target: T4, SR Ca^2+ pump (SERCA2a) (Mus musculus, UniProt O55143); settings: brief exposure to AS (0.25 mM); SR vesicles from mouse heart; cited from earlier work
# T4 construct: Using SR vesicles prepared from mouse heart; host or cells: mouse heart SR vesicles
# [3] = cited from earlier work
# cells = settings: cited from earlier work
# [4] = AS added every 24 h for 72 h, read-out: Experiment 2 (EC50)
# [5] = AS added every 24 h for 72 h, read-out: Experiment 3 (EC50)
# [6] = mean of 3 independent experiments, read-out: Mean EC50
# [7] = range given for both cell lines, read-out: EC50 growth inhibition over a series of three separate experiments
# T2 sequence (P61012 whole entry): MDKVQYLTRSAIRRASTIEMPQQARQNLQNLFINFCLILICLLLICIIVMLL
# T2 sequence (O46674 whole entry): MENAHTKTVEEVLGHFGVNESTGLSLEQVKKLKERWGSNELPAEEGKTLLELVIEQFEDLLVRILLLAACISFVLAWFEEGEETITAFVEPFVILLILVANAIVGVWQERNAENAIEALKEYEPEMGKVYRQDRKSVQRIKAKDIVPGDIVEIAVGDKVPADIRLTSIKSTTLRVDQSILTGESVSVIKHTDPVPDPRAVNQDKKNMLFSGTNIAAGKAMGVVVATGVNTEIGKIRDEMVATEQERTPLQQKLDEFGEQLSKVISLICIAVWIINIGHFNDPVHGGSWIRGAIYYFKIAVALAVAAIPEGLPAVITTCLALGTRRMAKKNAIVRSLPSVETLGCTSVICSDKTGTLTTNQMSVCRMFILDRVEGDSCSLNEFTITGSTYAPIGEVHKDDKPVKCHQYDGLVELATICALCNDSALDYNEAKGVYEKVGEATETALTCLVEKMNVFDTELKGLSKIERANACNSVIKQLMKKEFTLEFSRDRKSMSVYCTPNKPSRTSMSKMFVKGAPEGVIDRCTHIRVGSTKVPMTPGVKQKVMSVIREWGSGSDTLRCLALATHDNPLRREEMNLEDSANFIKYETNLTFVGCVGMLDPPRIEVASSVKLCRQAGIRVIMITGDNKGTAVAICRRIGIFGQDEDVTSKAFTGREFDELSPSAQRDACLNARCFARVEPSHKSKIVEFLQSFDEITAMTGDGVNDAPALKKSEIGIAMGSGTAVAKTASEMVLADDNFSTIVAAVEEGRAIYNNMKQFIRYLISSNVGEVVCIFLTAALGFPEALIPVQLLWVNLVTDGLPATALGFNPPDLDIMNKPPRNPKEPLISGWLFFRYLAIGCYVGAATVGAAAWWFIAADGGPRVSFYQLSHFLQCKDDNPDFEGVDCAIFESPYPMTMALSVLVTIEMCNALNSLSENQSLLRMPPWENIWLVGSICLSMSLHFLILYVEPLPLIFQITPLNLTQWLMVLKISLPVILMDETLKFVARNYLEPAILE
# T3 sequence (P16615 1-997 isoform P16615-2, stated change not applied): as the sequence (O46674 whole entry) above, with S376T, K403N, P538S, V544I, N576H, S661N, S713A, D877E, L963V counted along it
# T3 sequence (P26678 whole entry C36A/C41A/C46A): as the sequence (P61012 whole entry) above, with D2E, N27K, C36A, C41A, C46A counted along it
# T1 sequence (P61012 whole entry partner): as the sequence (P61012 whole entry) above
# T1 sequence (O46674 whole entry): as the sequence (O46674 whole entry) above
# T4 sequence (P61014 whole entry partner): as the sequence (P61012 whole entry) above, with D2E counted along it
# T4 sequence (O55143 1-998 isoform O55143-2): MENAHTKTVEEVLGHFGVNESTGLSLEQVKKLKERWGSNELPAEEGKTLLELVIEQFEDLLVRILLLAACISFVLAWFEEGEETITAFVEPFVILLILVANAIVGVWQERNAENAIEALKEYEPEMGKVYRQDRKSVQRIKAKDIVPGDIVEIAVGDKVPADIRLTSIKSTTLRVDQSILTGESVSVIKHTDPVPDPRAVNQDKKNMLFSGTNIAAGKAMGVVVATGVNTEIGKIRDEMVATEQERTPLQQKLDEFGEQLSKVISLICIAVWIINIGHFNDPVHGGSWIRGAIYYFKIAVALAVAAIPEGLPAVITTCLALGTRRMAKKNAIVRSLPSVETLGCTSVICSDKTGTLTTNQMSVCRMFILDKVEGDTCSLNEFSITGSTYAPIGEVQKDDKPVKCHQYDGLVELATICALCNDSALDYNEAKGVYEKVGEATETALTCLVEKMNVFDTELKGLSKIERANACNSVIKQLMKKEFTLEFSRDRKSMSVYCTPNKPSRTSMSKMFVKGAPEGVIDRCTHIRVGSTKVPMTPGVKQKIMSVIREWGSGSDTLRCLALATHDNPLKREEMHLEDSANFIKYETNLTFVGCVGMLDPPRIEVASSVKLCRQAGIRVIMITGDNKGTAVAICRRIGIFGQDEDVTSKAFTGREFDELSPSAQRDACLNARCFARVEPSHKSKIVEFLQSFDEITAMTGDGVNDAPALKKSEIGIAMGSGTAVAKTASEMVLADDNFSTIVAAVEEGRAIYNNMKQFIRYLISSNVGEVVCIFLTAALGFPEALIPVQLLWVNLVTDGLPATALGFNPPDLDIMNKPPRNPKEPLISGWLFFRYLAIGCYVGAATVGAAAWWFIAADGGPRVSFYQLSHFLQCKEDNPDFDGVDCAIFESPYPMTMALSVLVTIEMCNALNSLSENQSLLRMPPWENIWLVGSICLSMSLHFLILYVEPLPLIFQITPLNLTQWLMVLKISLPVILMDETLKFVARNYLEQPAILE
smiles,measurement,setting,value
[Na+].[Na+].[O-][N+]([O-])=NO [Angeli's salt],EC50,"[1]; AS added every 24 h for 72 h, read-out: Experiment 1 (EC50)",3000 µM
same,EC50,[1]; [4],900 µM
same,EC50,[1]; [5],1200 µM
same,EC50,[1]; [6],1700 µM
same,EC50,"[1]; mean of experiments 2 and 3 only (experiment 1 left out), read-out: Mean EC50",1050 µM
same,EC50,[1]; [7],1000 to 1700 µM
same,EC50,"[2]; AS added every 24 h for 72 h, 50% growth inhibition, read-out: Experiment 1 (EC50)",1400 µM
same,EC50,[2]; [4],700 µM
same,EC50,[2]; [5],1400 µM
same,EC50,[2]; [6],1170 µM
same,EC50,[2]; [7],1000 to 1700 µM
same,"E2P decay, accelerated initial decay phase",SERCA2a; without AS 11 s^−1,77 s⁻¹
same,E2P decay pattern,SERCA2a; without AS monophasic,biphasic decay pattern
same,A1 (%) amplitude fast phase,"SERCA2a + PLB (WT); 0.25 mM AS, 0° C.",11%
same,A2 (%) amplitude slow phase,"SERCA2a + PLB (WT); 0.25 mM AS, 0° C.",89%
same,k1,"SERCA2a + PLB (WT); 0.25 mM AS, 0° C.",5.00 s⁻¹
same,k2,"SERCA2a + PLB (WT); 0.25 mM AS, 0° C.",0.154 s⁻¹
same,dephosphorylation rate,"SERCA2a + PLB (WT); 0.25 mM AS, EGTA chase, from 0.5 s^−1 without AS",5 s⁻¹
same,stimulation of dephosphorylation,"SERCA2a + PLB (WT); brief exposure to 0.25 mM AS, EGTA chase",10 fold
same,A1 (%) amplitude fast phase,"SERCA2a + PLB (−C); 0.25 mM AS, 0° C.",100%
same,k1,"SERCA2a + PLB (−C); 0.25 mM AS, 0° C.",0.18 s⁻¹
same,stimulation of dephosphorylation by nitroxyl,"SERCA2a + PLB (−C); mutant PLB, all 3 transmembrane cysteines Cys→Ala",no stimulation
same,A1 (%) amplitude fast phase,SERCA2a alone; 0° C.,23%
same,A2 (%) amplitude slow phase,SERCA2a alone; 0° C.,77%
same,k1,SERCA2a alone; 0° C.,4.64 s⁻¹
same,k2,SERCA2a alone; 0° C.,0.174 s⁻¹
same,stimulation of dephosphorylation,SERCA2a alone; microsomes expressing SERCA2a alone,No additional stimulation
same,effect on Ca^2+ uptake,SR Ca^2+ pump (SERCA2a),activates Ca^2+uptake
same,water solubility,[3],highly water soluble
same,cell permeation,cells,rapidly permeates cells
